According to ChEMBL document CHEMBL4813980, “A novel class of selective non-nucleoside inhibitors of human DNA methyltransferase 3A” (Bioorg Med Chem Lett, 2021):
Calls of active or inactive are those of the source. No cut-off for these calls is given here.

Tests used:
[1] = biological target: T1, DNA (cytosine-5)-methyltransferase 3A (Homo sapiens, UniProt Q9Y6K1); test: Binding affinity to human DNMT3A catalytic domain assessed as inhibition of enzyme-mediated DNA methylation using poly dl-dC as substrate incubated for 30 mins
T1 sequence (Q9Y6K1 whole entry, looked up, the tested form may be a part): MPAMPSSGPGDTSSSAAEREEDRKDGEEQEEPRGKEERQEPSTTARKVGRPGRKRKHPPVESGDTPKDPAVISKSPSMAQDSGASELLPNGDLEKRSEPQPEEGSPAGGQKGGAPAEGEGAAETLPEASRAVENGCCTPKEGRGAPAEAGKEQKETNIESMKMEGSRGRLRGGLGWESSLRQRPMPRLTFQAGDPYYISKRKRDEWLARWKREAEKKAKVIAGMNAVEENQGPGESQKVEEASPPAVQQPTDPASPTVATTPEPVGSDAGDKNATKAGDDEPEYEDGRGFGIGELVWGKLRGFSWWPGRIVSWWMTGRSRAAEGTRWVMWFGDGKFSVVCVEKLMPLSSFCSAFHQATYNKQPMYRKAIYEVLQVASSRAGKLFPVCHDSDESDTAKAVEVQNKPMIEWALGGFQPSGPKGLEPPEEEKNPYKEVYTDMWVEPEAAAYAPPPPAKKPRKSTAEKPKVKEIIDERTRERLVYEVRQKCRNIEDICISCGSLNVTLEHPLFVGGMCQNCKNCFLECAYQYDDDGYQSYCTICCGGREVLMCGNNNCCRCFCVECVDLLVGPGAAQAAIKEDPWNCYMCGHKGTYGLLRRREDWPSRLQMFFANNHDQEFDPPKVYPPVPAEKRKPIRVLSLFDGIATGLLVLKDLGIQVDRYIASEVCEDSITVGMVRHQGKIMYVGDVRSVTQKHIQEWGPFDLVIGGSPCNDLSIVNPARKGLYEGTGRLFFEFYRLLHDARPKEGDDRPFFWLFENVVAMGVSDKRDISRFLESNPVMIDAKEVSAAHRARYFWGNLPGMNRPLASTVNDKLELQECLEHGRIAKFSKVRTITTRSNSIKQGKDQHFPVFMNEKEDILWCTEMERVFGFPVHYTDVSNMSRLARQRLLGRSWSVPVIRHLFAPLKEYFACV

[2] = biological target: T1, DNA (cytosine-5)-methyltransferase 3A; test: Binding affinity to human DNMT3A catalytic domain assessed as inhibition of enzyme-mediated DNA methylation using 3H-AdoMet as substrate incubated for 30 mins
[3] = Inhibition of bacterial DNA cytosine methyltransferase M.SssI up to 60 uM preincubated for 15 mins followed by DNA addition measured after 30 mins relative to control; settings: dose microM <=60, time 15.0 min
[4] = biological target: T1, DNA (cytosine-5)-methyltransferase 3A; test: Uncompetitive inhibition of human DNMT3A using AdoMet as substrate
[5] = biological target: T1, DNA (cytosine-5)-methyltransferase 3A; test: Inhibition of human DNMT3A (628 to 912 residues) preincubated for 15 mins followed by DNA addition measured after 30 mins relative to control
[6] = biological target: T1, DNA (cytosine-5)-methyltransferase 3A; test: Uncompetitive inhibition of human DNMT3A using poly dl-dC as substrate
[7] = biological target: DNA (cytosine-5)-methyltransferase 1 (Homo sapiens) (UniProt P26358); test: Inhibition of DNMT1 (unknown origin) up to 6 uM preincubated for 15 mins followed by DNA addition measured after 30 mins relative to control; settings: dose microM <=6, time 15.0 min
Chain of DNA (cytosine-5)-methyltransferase 1 (Homo sapiens) (P26358 whole entry): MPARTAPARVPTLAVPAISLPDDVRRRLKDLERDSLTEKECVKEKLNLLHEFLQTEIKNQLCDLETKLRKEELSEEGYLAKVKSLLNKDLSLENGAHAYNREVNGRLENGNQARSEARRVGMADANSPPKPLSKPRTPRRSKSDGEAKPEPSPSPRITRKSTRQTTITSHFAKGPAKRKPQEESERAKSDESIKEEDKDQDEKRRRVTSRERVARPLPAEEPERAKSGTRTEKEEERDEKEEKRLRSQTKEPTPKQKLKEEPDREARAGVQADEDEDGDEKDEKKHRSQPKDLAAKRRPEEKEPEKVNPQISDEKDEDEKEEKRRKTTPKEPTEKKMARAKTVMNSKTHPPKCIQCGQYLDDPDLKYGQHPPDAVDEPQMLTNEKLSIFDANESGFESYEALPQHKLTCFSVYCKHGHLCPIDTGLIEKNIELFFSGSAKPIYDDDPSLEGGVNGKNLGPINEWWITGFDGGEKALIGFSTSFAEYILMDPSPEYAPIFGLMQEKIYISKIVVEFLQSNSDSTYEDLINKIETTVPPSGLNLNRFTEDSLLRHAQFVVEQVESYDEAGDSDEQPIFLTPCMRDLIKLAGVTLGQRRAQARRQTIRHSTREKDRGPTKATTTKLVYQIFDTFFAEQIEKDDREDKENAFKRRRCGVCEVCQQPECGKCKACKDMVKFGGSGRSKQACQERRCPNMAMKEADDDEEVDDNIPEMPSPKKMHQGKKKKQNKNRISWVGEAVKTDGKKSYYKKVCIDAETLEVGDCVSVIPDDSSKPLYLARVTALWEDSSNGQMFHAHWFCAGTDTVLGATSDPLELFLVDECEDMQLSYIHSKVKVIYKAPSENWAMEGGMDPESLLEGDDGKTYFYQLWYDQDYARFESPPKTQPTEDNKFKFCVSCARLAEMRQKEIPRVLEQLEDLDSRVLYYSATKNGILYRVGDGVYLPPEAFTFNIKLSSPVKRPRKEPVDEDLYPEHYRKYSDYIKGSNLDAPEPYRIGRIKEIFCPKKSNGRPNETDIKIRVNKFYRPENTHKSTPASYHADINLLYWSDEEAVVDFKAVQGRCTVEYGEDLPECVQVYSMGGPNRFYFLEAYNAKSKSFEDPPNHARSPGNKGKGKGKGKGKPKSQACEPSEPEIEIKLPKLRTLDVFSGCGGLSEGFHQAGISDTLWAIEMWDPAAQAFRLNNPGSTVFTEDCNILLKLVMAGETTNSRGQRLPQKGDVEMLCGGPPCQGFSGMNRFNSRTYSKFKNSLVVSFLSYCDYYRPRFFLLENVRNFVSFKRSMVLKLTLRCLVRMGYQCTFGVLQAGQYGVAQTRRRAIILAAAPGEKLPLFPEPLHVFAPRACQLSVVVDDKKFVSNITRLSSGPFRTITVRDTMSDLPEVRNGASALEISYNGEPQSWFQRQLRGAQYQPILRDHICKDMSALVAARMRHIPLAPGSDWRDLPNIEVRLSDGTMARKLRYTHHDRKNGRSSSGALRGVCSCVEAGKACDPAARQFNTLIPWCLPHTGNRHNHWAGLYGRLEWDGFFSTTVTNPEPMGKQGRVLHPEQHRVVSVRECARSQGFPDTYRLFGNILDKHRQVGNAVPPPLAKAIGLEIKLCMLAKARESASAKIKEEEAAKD

[8] = biological target: T1, DNA (cytosine-5)-methyltransferase 3A; test: Mixed type inhibition of human DNMT3A using AdoMet as substrate
[9] = biological target: T1, DNA (cytosine-5)-methyltransferase 3A; test: Mixed type inhibition of human DNMT3A using poly dl-dC as substrate

| Ki [1] | Ki [2] | inhibition [3] | Ki [4] | inhibition [5] | Ki [6] | inhibition [7] | Ki [8] | Ki [9] | SMILES |
| --- | --- | --- | --- | --- | --- | --- | --- | --- | --- |
| 16.1 µM | 13.8 µM | inactive | 9.16 µM | Active | 11.4 µM | Active |  |  | COc1ccc(C2=NN(C3CCCCCC3)C(=O)[C@@H]3CC=CC[C@H]23)cc1OCCCCOc1ccc(-c2nnn[nH]2)cc1 |
|  |  | inactive |  | Active |  | Active |  |  | COc1ccc(C2=NN(C3CCCCCC3)C(=O)C2(C)C)cc1OCCCCOc1ccc(-c2nn[nH]n2)cc1 |
| 21.6 µM | 5.03 µM |  |  |  |  |  | 3.7 µM | 12.6 µM | COc1ccc(C2=NN(C3CCCCCC3)C(=O)C2(C)C)cc1OCCCCOc1ccc(-c2nnn[nH]2)cc1 |
